Data as given in US11622947B2, “Compositions comprising quillaja extract and methods of preparations and use thereof” (American River Nutrition, LLC, priority 2019, dated 2023).
Entries after “also recorded” stand apart in the source; their conditions may differ. Read-outs that look alike come from different tables or passages of the source.

What was measured:
[1] = Dispersibility / sedimentation of active powder with quillaja powder in DI water (time-dependent trial); type: physicochemical; details: for Relative Dispersibilities without quillaja powder: FIGS. 1-6
Description: This example sets forth compositions and methods for making compositions of one active ingredient with quillaja powder. Each of the compositions is prepared by mixing one active ingredient with quillaja powder at a fixed ratio of about 75:25, about 60:40, about 50:50, about 40:60, or about 25:75. This example also sets forth methods to test the dispersibilities of the resulting compositions.
• 1. Add 5 mL DI water to 15 mL disposable glass test tube • 2. Weight out Active ingredient (back weigh for accuracy) • a. For 100% active ingredient, weigh out close to the target amount, note the weight, then zero the balance (with active ingredient still on it) • b. Add active ingredient to test tube with DI water • c. Place mostly empty powder weight boat back onto scale and record actual weight added • d. For other mixtures of active ingredient and quillaja powder, perform similar but add to new weight boat to mix powders (instead of adding directly to test tube) • 3. Weigh out quillaja powder (back weigh for accuracy) • a. Weigh out close to target amount of quillaja, note the weight, then zero the balance (with quillaja still on it) • b. Add quillaja to mixture weight boat (with active) • c. Place mostly empty quillaja weigh boat back onto scale and record actual weight added • 4. Repeat for all ratios of powder mixtures below (dose-dependent study):
• 5. Mix powders together • 6. Add powder mixture to the test tube with DI water. Vortex for exactly 2 minutes and perform time-dependent study • 7. Let settle for 10 minutes then take picture/note observations such as degree of turbidity, dispersibility, any large solids, etc. • 8. After 30 minutes (total), take picture/note observations • 9. After 2 hours (total), take picture/note observations • 10. After 4 hours (total), take picture/note observations • 11. Take special note of the size of the solid “pellet” that settles out on the bottom • a. Try to measure its size (estimated) by taking the radius/diameter combined with the height
This example sets forth compositions of CoQ10 powder and quillaja powder at fixed ratios of 100:0, about 75:25, about 60:40, about 50:50, about 40:60, and about 25:75 respectively. As used herein in Example A2, CoQ10 powder is ubiquinone powder as CoQ10(ubiquinone) powder. The compositions have been prepared according to experimental procedures in Example 1A. A time-dependent trial of sedimentation rates of the compositions comprising ubiquinone powder and quillaja powder at different ratios in water was conducted at time points of 10 minutes, 30 minutes, 2 hours, and 4 hours are shown in FIG. 1. Regarding the test tubes in each of the pictures of FIG. 1, from right to left, the weight ratios of CoQ10(ubiquinone) powder to quillaja powder are in the order of 100:0, about 75:25, about 60:40, about 50:50, about 40:60, and about 25:75 respectively. […] Increasing extent of turbidity was indicative of the highest dispersibility and solubility.
This example sets forth comparisons of the dispersibilities for compositions of Examples A2-A7, which comprise various active ingredients mixed with quillaja powder at various fixed ratios. After comparing the results shown in FIGS. 1-6, the relative dispersibilities are as following: • a) Relative Dispersibilities without quillaja powder: Quercetin>Berberine>Resveratrol>Curcumin>DIM>CoQ10(ubiquinone) • b) Relative Dispersibilities with quillaja powder at time point of 30 minute or less: Quercetin>(Curcumin=Resveratrol)>(DIM=Berberine)>CoQ10(ubiquinone) • c) Relative Dispersibilities with quillaja powder at time point of 2 hours or more Quercetin>(DIM=Curcumin=Resveratrol)>Berberine>CoQ10(ubiquinone)

[2] = Surface tension interaction by visual observation of glass smearing above the water level; type: physicochemical
Description: This example sets forth comparisons of the surface tension interactions of the compositions of Example A2-A7. The surface tension interactions of the compositions of various active ingredients mixed with quillaja powder at various fixed ratios were specifically compared with those of the compositions of various active ingredients without quillaja powder. Surface tension interaction is determined by visual observation of glass smearing of active ingredient powders above the water level. • a) Relative surface tension interaction without quillaja powder: (CoQ10(ubiquinone)≥Curcumin)>(Resveratrol≥DIM)>(Quercetin≥Berberine) • b) Relative surface tension interaction with quillaja powder: […]

[3] = Bioaccessibility of ubiquinol by simulated in vitro digestion; type: in vitro ADME; details: HPLC of filtered supernatant
From the text: In some embodiments, methods of increasing the bioaccessibility and/or bioavailability of an active ingredient in a subject are provided. The active ingredient can be any active ingredients, such as, but not limited to, those described herein. In some embodiments, the methods comprise administering to the subject any of the compositions provided for herein. The administration can be by any method, such as those described herein. […] An increase in bioaccessibility can be determined by any suitable method. For example, bioaccessibility can be measured by simulated in vitro digestion. […] Without being bound to any particular method, in some embodiments, bioaccessibility is determined by mixing a sample (a composition) with a saliva solution and, optionally, mucin. […] The samples can then be analyzed by HPLC to determine the increase in bioaccessibility. Bioaccessibility can be calculated by dividing the amount of the at least one active ingredient measured by, for example HPLC, by the theoretical (or actual amount of ubiquinol in the sample)×100 to determine the percent bioaccessibility. […]
This example sets forth to test the effect of quillaja powder on bioaccessiblity of ubiquinol. Bioaccessibility of ubiquinol was measured by simulated in vitro digestion. […] Bioaccessibility (%)=(ubiquinol measured by HPLC/theoretical amount of ubiquinol in the sample)×100%.

[4] = active:quillaja 100:0, DI water, 10 minutes, 30 minutes, 2 hours, 4 hours

| Structure (SMILES) | dispersibility and solubility in water, tube without quillaja powder [1, 4] | Relative Dispersibilities with quillaja powder at time point of 30 minute or less [1] | Relative Dispersibilities with quillaja powder at time point of 2 hours or more [1] | Relative Dispersibilities without quillaja powder [1] | Relative surface tension interaction without quillaja powder [2] | Relative surface tension interaction without quillaja powder ([2]; listed as berberine) | dispersibility and solubility in water, tube without quillaja powder [1] | Relative surface tension interaction without quillaja powder ([2]; listed as curcumin) | Relative surface tension interaction without quillaja powder ([2]; listed as quercetin) | bioaccessibility of ubiquinol [3] [%] |
| --- | --- | --- | --- | --- | --- | --- | --- | --- | --- | --- |
| COc1ccc2cc3[n+](cc2c1OC)CCc1cc2c(cc1-3)OCO2 [Berberine, berberine] | complete separation | Quercetin>(Curcumin=Resveratrol)>(DIM=Berberine)>CoQ10(ubiquinone) | Quercetin>(DIM=Curcumin=Resveratrol)>Berberine>CoQ10(ubiquinone) | Quercetin>Berberine>Resveratrol>Curcumin>DIM>CoQ10(ubiquinone) | (CoQ10(ubiquinone)≥Curcumin)>(Resveratrol≥DIM)>(Quercetin≥Berberine) | Lowest surface tension | – | – | – | – |
| COC1=C(OC)C(=O)C(C/C=C(\C)CC/C=C(\C)CC/C=C(\C)CC/C=C(\C)CC/C=C(\C)CC/C=C(\C)CC/C=C(\C)CC/C=C(\C)CC/C=C(\C)CCC=C(C)C)=C(C)C1=O [CoQ10(ubiquinone), ubiquinone] | – | Quercetin>(Curcumin=Resveratrol)>(DIM=Berberine)>CoQ10(ubiquinone) | Quercetin>(DIM=Curcumin=Resveratrol)>Berberine>CoQ10(ubiquinone) | Quercetin>Berberine>Resveratrol>Curcumin>DIM>CoQ10(ubiquinone) | (CoQ10(ubiquinone)≥Curcumin)>(Resveratrol≥DIM)>(Quercetin≥Berberine); also recorded: Highest surface tension | – | complete separation | – | – | – |
| COc1cc(/C=C/C(=O)CC(=O)/C=C/c2ccc(O)c(OC)c2)ccc1O [Curcumin, curcumin] | complete separation | Quercetin>(Curcumin=Resveratrol)>(DIM=Berberine)>CoQ10(ubiquinone) | Quercetin>(DIM=Curcumin=Resveratrol)>Berberine>CoQ10(ubiquinone) | Quercetin>Berberine>Resveratrol>Curcumin>DIM>CoQ10(ubiquinone) | (CoQ10(ubiquinone)≥Curcumin)>(Resveratrol≥DIM)>(Quercetin≥Berberine) | – | – | Highest surface tension | – | – |
| O=c1c(O)c(-c2ccc(O)c(O)c2)oc2cc(O)cc(O)c12 [Quercetin, quercetin] | – | Quercetin>(Curcumin=Resveratrol)>(DIM=Berberine)>CoQ10(ubiquinone) | Quercetin>(DIM=Curcumin=Resveratrol)>Berberine>CoQ10(ubiquinone) | Quercetin>Berberine>Resveratrol>Curcumin>DIM>CoQ10(ubiquinone) | (CoQ10(ubiquinone)≥Curcumin)>(Resveratrol≥DIM)>(Quercetin≥Berberine) | – | complete separation | – | Lowest surface tension | – |
| Oc1ccc(C=Cc2cc(O)cc(O)c2)cc1 [Resveratrol, resveratrol] | complete separation | Quercetin>(Curcumin=Resveratrol)>(DIM=Berberine)>CoQ10(ubiquinone) | Quercetin>(DIM=Curcumin=Resveratrol)>Berberine>CoQ10(ubiquinone) | Quercetin>Berberine>Resveratrol>Curcumin>DIM>CoQ10(ubiquinone) | (CoQ10(ubiquinone)≥Curcumin)>(Resveratrol≥DIM)>(Quercetin≥Berberine) | – | – | – | – | – |
| COc1c(O)c(C)c(C/C=C(\C)CC/C=C(\C)CC/C=C(\C)CC/C=C(\C)CC/C=C(\C)CC/C=C(\C)CC/C=C(\C)CC/C=C(\C)CC/C=C(\C)CCC=C(C)C)c(O)c1OC [sample A, ubiquinol] | – | – | – | – | – | – | – | – | – | 0.88 |
